Experimental data as given in US9540385B2, “Pyrrolopyrimidine compounds as kinase inhibitors” (Pharmacyclics LLC, priority 2012, dated 2017).

Target: T1, BTK (Homo sapiens, UniProt Q06187)
T1 construct: purified from insect cells as a full-length construct containing a N-terminal 6×-His tag; His6 (N); made in house; host or cells: insect cells (baculovirus, Sf21)
Assay: Btk in vitro inhibitory activity / inhibition of a panel of kinases (TR-FRET, mobility shift or radiometric filter binding)
Format: biochemical
Conditions: kinase assay by one of methods A, B or C
Description: Btk kinase activity is determined using a time-resolved fluorescence resonance energy transfer (TR-FRET) methodology. Measurements are performed in a reaction volume of 50 μL using 96-well assay plates. Kinase enzyme, inhibitor, ATP (at the Km for the kinase), and 1 μM peptide substrate (Biotin-AVLESEEELYSSARQ-NH2) are incubated in a reaction buffer composed of 20 mM Tris, 50 mM NaCl, MgCl2 (5-25 mM depending on the kinase), MnCl2 (0-10 mM), 1 mM DTT, 0.1 mM EDTA, 0.01% bovine serum albumin, 0.005% Tween-20, and 10% DMSO at pH 7.4 for one hour. The reaction is quenched by the addition of 1.2 equivalents of EDTA (relative to divalent cation) in 25 μL of 1× Lance buffer (Perkin-Elmer). Streptavidin-APC (Perkin-Elmer) and Eu-labeled p-Tyr100 antibody (Perkin-Elmer) in 1× Lance buffer are added in a 25 μL volume to give final concentrations of 100 nM and 2.5 nM, respectively, and the mixture is allowed to incubate for one hour. The TR-FRET signal is measured on a multimode plate reader with an excitation wavelength (λEx) of 330 nm and detection wavelengths (λEm) of 615 and 665 nm. Activity is determined by the ratio of the fluorescence at 665 nm to that at 615 nm. For each compound, enzyme activity is measured at various concentrations of compound. Negative control reactions are performed in the absence of inhibitor in replicates of six, and two no-enzyme controls are used to determine baseline fluorescence levels. Inhibition constants, Ki(app), ware obtained using the program BatchKi (Kuzmic et al. (2000), Anal. Biochem. 286:45-50). IC50s are obtained according to the equation: IC50={Ki(app)/(1+[ATP]/Km^ATP)}+[E]total/2;
For all kinases, [ATP]=Km^ATP, [Btk]total=0.5 nM and [Lck]total=6 nM.
Kinase activity is measured in vitro using electrophoretic mobility shift assay. The kinase reactions are assembled in a total volume of 25 μL in 384 well plates. The reactions comprise: BTK enzyme (1 nM, N-terminal His6-tagged, recombinant, full-length, human BTK purified from baculovirus Sf21 insect cell system), inhibitor, ATP ([…] the apparent Km for the kinase), fluorescently labeled peptide substrate (1 μM, FAM-GEEPLYWSFPAKKK-NH2) in a reaction buffer composed of 100 mM HEPES, pH7.5, 5 mM MgCl2 1 mM DTT, 0.1% bovine serum albumin, 0.01% Triton X-100, and 1% DMSO. The reaction is incubated for one hour and is quenched by the addition of 45 μL of termination buffer (100 mM HEPES, pH7.5, 0.01% Triton X-100, 30 mM EDTA). The terminated reactions are analyzed using 12 channel LabChip® 3000 microfluidic detection instrument (Caliper Life Sciences). The enzymatic phosphorylation of the peptide results in a change in net charge, enabling electrophoretic separation of product from substrate peptide. As substrate and product peptides are separated, two peaks of fluorescence are observed. Change in the relative fluorescence intensity of the substrate and product peaks is the parameter measured, reflecting enzyme activity. In the presence of an inhibitor, the ratio between product and substrate is altered: the signal of the product decreases, while the signal of the substrate increases.
Activity in each sample is determined as the product to sum ratio (PSR):P/(S+P), where P is the peak height of the product peptide and S is the peak height of the substrate peptide. For each compound, enzyme activity is measured at various concentrations (12 concentrations of compound spaced by 3× dilution intervals). Negative control samples (0%-inhibition in the absence of inhibitor) and positive control samples (100%-inhibition, in the presence of 20 mM EDTA) are assembled in replicates of four and are used to calculate %-inhibition values for each inhibitor at each concentration. Percent inhibition (Pinh) is determined using following equation: […]

T1 sequence (Q06187 whole entry): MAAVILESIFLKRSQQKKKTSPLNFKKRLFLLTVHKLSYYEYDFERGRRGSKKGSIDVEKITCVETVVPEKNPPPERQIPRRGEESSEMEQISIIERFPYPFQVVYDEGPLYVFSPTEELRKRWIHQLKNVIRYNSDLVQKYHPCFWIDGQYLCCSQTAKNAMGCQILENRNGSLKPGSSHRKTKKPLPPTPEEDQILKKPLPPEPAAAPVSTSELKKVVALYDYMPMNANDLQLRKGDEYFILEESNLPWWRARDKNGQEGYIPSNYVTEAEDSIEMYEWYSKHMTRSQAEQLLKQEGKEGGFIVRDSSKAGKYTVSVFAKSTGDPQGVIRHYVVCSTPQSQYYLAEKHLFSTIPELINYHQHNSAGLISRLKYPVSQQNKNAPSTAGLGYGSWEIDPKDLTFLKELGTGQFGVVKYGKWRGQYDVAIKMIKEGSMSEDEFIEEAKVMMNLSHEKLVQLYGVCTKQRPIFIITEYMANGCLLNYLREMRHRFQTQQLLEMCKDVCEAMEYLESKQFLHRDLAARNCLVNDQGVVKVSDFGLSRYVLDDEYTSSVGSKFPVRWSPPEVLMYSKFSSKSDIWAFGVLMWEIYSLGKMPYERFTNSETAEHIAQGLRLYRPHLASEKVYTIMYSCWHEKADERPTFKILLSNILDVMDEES

| IC50 [nM] | Compound |
| --- | --- |
| < 100 | COCCN(C)C/C=C/C(=O)N1CC[C@@H](n2c(C3CC3)c(-c3ccc(Oc4ccccc4)cc3)c3c(N)ncnc32)C1 [Compound 96, (R,E)-1-(3-(4-amino-6-cyclopropyl-5-(4-phenoxyphenyl)-7H-pyrrolo[2,3-d]pyrimidin-7-yl)pyrrolidin-1-yl)-4-((2-methoxyethyl)(methyl)amino)but-2-en-1-one] |
| < 100 | CN(C/C=C/C(=O)N1CC[C@@H](n2c(C3CC3)c(-c3ccc(Oc4ccccc4)cc3)c3c(N)ncnc32)C1)[C@@H]1CCOC1 [Compound 97, (E)-1-((R)-3-(4-amino-6-cyclopropyl-5-(4-phenoxyphenyl)-7H-pyrrolo[2,3-d]pyrimidin-7-yl)pyrrolidin-1-yl)-4-(methyl((R)-tetrahydrofuran-3-yl)amino)but-2-en-1-one] |
| 100 to 1000 | CN(C/C=C/C(=O)N1CC[C@@H](n2c(C3CC3)c(-c3ccc(Oc4cccc(F)c4)cc3)c3c(N)ncnc32)C1)C1CC1 [Compound 99, (R,E)-1-(3-(4-amino-6-cyclopropyl-5-(4-(3-fluorophenoxy)phenyl)-7H-pyrrolo[2,3-d]pyrimidin-7-yl)pyrrolidin-1-yl)-4-(cyclopropyl(methyl)amino)but-2-en-1-one] |
| < 100 | CN(C/C=C/C(=O)N1CC[C@@H](n2c(C#N)c(-c3ccc(Oc4ccccc4)cc3)c3c(N)ncnc32)C1)C1CC1 [Compound 103, (R,E)-4-amino-7-(1-(4-(cyclopropyl(methyl)amino)but-2-enoyl)pyrrolidin-3-yl)-5-(4-phenoxyphenyl)-7H-pyrrolo[2,3-d]pyrimidine-6-carbonitrile] |
| < 100 | CN(C/C=C/C(=O)N1CC[C@@H](n2c(C#N)c(-c3ccc(Oc4ccccc4)cc3)c3c(N)ncnc32)C1)[C@H]1CCOC1 [Compound 106, 4-amino-7-((R)-1-((E)-4-(methyl((S)-tetrahydrofuran-3-yl)amino)but-2-enoyl)pyrrolidin-3-yl)-5-(4-phenoxyphenyl)-7H-pyrrolo[2,3-d]pyrimidine-6-carbonitrile] |
| < 100 | C#Cc1c(-c2ccc(Oc3ccccc3)cc2)c2c(N)ncnc2n1[C@@H]1CCN(C(=O)/C=C/CN(C)C2CC2)C1 [Compound 112, (R,E)-1-(3-(4-amino-6-ethynyl-5-(4-phenoxyphenyl)-7H-pyrrolo[2,3-d]pyrimidin-7-yl)pyrrolidin-1-yl)-4-(cyclopropyl(methyl)amino)but-2-en-1-one] |
| 100 to 1000 | CC(C)c1c(-c2ccc(Oc3ccccc3)cc2)c2c(N)ncnc2n1[C@@H]1CCN(C(=O)/C=C/CN(C)C2CC2)C1 [Compound 118, (R,E)-1-(3-(4-amino-6-isopropyl-5-(4-phenoxyphenyl)-7H-pyrrolo[2,3-d]pyrimidin-7-yl)pyrrolidin-1-yl)-4-(cyclopropyl(methyl)amino)but-2-en-1-one] |
| < 100 | CN(C/C=C/C(=O)N1CC[C@@H](n2c(C(F)F)c(-c3ccc(Oc4ccccc4)cc3)c3c(N)ncnc32)C1)C1CC1 [Compound 122, (R,E)-1-(3-(4-amino-6-(difluoromethyl)-5-(4-phenoxyphenyl)-7H-pyrrolo[2,3-d]pyrimidin-7-yl)pyrrolidin-1-yl)-4-(cyclopropyl(methyl)amino)but-2-en-1-one] |
| < 100 | CN(C/C=C/C(=O)N1CC[C@@H](n2c(C(=O)O)c(-c3ccc(Oc4ccccc4)cc3)c3c(N)ncnc32)C1)C1CC1 [Compound 128, (R,E)-4-amino-7-(1-(4-(cyclopropyl(methyl)amino)but-2-enoyl)pyrrolidin-3-yl)-5-(4-phenoxyphenyl)-7H-pyrrolo[2,3-d]pyrimidine-6-carboxylic acid] |

Further lines, the compound ahead of its results:

| Compound | IC50 [nM] |
| --- | --- |
| CN(C)C/C=C/C(=O)N1CC[C@@H](n2c(C3CC3)c(-c3ccc(Oc4ccccc4)cc3)c3c(N)ncnc32)C1 [Compound 100, (R,E)-1-(3-(4-amino-6-cyclopropyl-5-(4-phenoxyphenyl)-7H-pyrrolo[2,3-d]pyrimidin-7-yl)pyrrolidin-1-yl)-4-(dimethylamino)but-2-en-1-one] | < 100 |
| CN(C)C/C=C/C(=O)N1CC[C@@H](n2c(C#N)c(-c3ccc(Oc4ccccc4)cc3)c3c(N)ncnc32)C1 [Compound 102, (R,E)-4-amino-7-(1-(4-(dimethylamino)but-2-enoyl)pyrrolidin-3-yl)-5-(4-phenoxyphenyl)-7H-pyrrolo[2,3-d]pyrimidine-6-carbonitrile] | < 100 |
| COCCN(C)C/C=C/C(=O)N1CC[C@@H](n2c(C#N)c(-c3ccc(Oc4ccccc4)cc3)c3c(N)ncnc32)C1 [Compound 104, (R,E)-4-amino-7-(1-(4-((2-methoxyethyl)(methyl)amino)but-2-enoyl)pyrrolidin-3-yl)-5-(4-phenoxyphenyl)-7H-pyrrolo[2,3-d]pyrimidine-6-carbonitrile] | < 100 |
| COCCN(C/C=C/C(=O)N1CC[C@@H](n2c(C#N)c(-c3ccc(Oc4ccccc4)cc3)c3c(N)ncnc32)C1)CCOC [Compound 105, (R,E)-4-amino-7-(1-(4-(bis(2-methoxyethyl)amino)but-2-enoyl)pyrrolidin-3-yl)-5-(4-phenoxyphenyl)-7H-pyrrolo[2,3-d]pyrimidine-6-carbonitrile] | < 100 |
| CN(C/C=C/C(=O)N1CC[C@@H](n2c(C#N)c(-c3ccc(Oc4ccccc4)cc3)c3c(N)ncnc32)C1)[C@@H]1CCOC1 [Compound 107, 4-amino-7-((R)-1-((E)-4-(methyl((R)-tetrahydrofuran-3-yl)amino)but-2-enoyl)pyrrolidin-3-yl)-5-(4-phenoxyphenyl)-7H-pyrrolo[2,3-d]pyrimidine-6-carbonitrile] | < 100 |
| CN(C/C=C/C(=O)N1CC[C@@H](n2c(C#N)c(-c3ccc(Oc4cccc(F)c4)cc3)c3c(N)ncnc32)C1)C1CC1 [Compound 109, (R,E)-4-amino-7-(1-(4-(cyclopropyl(methyl)amino)but-2-enoyl)pyrrolidin-3-yl)-5-(4-(3-fluorophenoxyl)phenyl)-7H-pyrrolo[2,3-d]pyrimidine-6-carbonitrile] | < 100 |
| CCc1c(-c2ccc(Oc3ccccc3)cc2)c2c(N)ncnc2n1[C@@H]1CCN(C(=O)/C=C/CN(C)C2CC2)C1 [Compound 115, (R,E)-1-(3-(4-amino-6-ethyl-5-(4-phenoxyphenyl)-7H-pyrrolo[2,3-d]pyrimidin-7-yl)pyrrolidin-1-yl)-4-(cyclopropyl(methyl)amino)but-2-en-1-one] | 100 to 1000 |
| CN(C/C=C/C(=O)N1CC[C@@H](n2c(-c3ncco3)c(-c3ccc(Oc4ccccc4)cc3)c3c(N)ncnc32)C1)C1CC1 [Compound 124, (R,E)-1-(3-(4-amino-6-(oxazol-2-yl)-5-(4-phenoxyphenyl)-7H-pyrrolo[2,3-d]pyrimidin-7-yl)pyrrolidin-1-yl)-4-(cyclopropyl(methyl)amino)but-2-en-1-one] | < 100 |
| CN(C/C=C/C(=O)N1CC[C@@H](n2c(C(N)=O)c(-c3ccc(Oc4ccccc4)cc3)c3c(N)ncnc32)C1)C1CC1 [Compound 126, (R,E)-4-amino-7-(1-(4-(cyclopropyl(methyl)amino)but-2-enoyl)pyrrolidin-3-yl)-5-(4-phenoxyphenyl)-7H-pyrrolo[2,3-d]pyrimidine-6-carboxamide] | < 100 |
| Cc1c(-c2ccc(Oc3ccccc3)cc2)c2c(N)ncnc2n1[C@@H]1CCN(C(=O)/C=C/CN(C)[C@H]2CCOC2)C1 [Compound 129, (E)-1-((R)-3-(4-amino-6-methyl-5-(4-phenoxyphenyl)-7H-pyrrolo[2,3-d]pyrimidin-7-yl)pyrrolidin-1-yl)-4-(methyl((S)-tetrahydrofuran-3-yl)amino)but-2-en-1-one] | < 100 |
